Experimental data from patent US10280205B2, “Method for treating cancer with an activated T lymphocyte that selectively recognizes a cancer cell consisting of specific peptide” (immatics biotechnologies GmbH, priority 2015, dated 2019).

Tests used:
[1] = test system: CD8+ T cells; assay: In vitro T-cell priming assay with aAPCs loaded with peptide/MHC complexes and anti-CD28, multimer staining readout (in vitro immunogenicity); type: cell-based, human; details: for donors (positive donors, in vitro immunogenicity) / wells (positive wells, in vitro immunogenicity): HLA class I peptides; for donors (positive donors, in vitro immunogenicity): percentage of positive donors among evaluable; for wells (positive wells, in vitro immunogenicity): percentage of positive wells; for Wells positive [%]: HLA-A*02 restricted peptides
Description: In order to obtain information regarding the immunogenicity of the TUMAPs of the present invention, the inventors performed investigations using an in vitro T-cell priming assay based on repeated stimulations of CD8+ T cells with artificial antigen presenting cells (aAPCs) loaded with peptide/MHC complexes and anti-CD28 antibody.
In order to perform in vitro stimulations by artificial antigen presenting cells loaded with peptide-MHC complex (pMHC) and anti-CD28 antibody, the inventors first isolated CD8+ T cells from fresh HLA-A*02 leukapheresis products via positive selection using CD8 microbeads (Miltenyi Biotec, Bergisch-Gladbach, Germany) of healthy donors obtained from the University clinics Mannheim, Germany, after informed consent.
PBMCs and isolated CD8+ lymphocytes were incubated in T-cell medium (TCM) until use consisting of RPMI-Glutamax (Invitrogen, Karlsruhe, Germany) supplemented with 10% heat inactivated human AB serum (PAN-Biotech, Aidenbach, Germany), 100 U/ml Penicillin/100 μg/ml Streptomycin (Cambrex, Cologne, Germany), 1 mM sodium pyruvate (CC Pro, Oberdorla, Germany), 20 μg/ml Gentamycin (Cambrex). 2.5 ng/ml IL-7 (PromoCell, Heidelberg, Germany) and 10 U/ml IL-2 (Novartis Pharma, Nurnberg, Germany) were also added to the TCM at this step.
Generation of pMHC/anti-CD28 coated beads, T-cell stimulations and readout was performed in a highly defined in vitro system using four different pMHC molecules per stimulation condition and 8 different pMHC molecules per readout condition.
The purified co-stimulatory mouse IgG2a anti human CD28 Ab 9.3 (Jung et al., 1987) was chemically biotinylated using Sulfo-N-hydroxysuccinimidobiotin as recommended by the manufacturer (Perbio, Bonn, Germany). Beads used were 5.6 μm diameter streptavidin coated polystyrene particles (Bangs Laboratories, Illinois, USA).
pMHC used for positive and negative control stimulations were A*0201/MLA-001 (peptide […] (SEQ ID NO. 664) from modified Melan-A/MART-1) and A*0201/DDX5-001 ([…] from DDX5, SEQ ID NO. 665), respectively.
800.000 beads/200 μl were coated in 96-well plates in the presence of 4×12.5 ng different biotin-pMHC, washed and 600 ng biotin anti-CD28 were added subsequently in a volume of 200 μl. Stimulations were initiated in 96-well plates by co-incubating […] CD8+ T cells with 2×10^5 washed coated beads in 200 μl TCM supplemented with 5 ng/ml IL-12 (PromoCell) for 3 days at 37° C. Half of the medium was then exchanged by fresh TCM supplemented with 80 U/ml IL-2 and incubating was continued for 4 days at 37° C. This stimulation cycle was performed for a total of three times. For the pMHC multimer readout using 8 different pMHC molecules per condition, a two-dimensional combinatorial coding approach was used as previously described (Andersen et al., 2012) with minor modifications encompassing coupling to 5 different fluorochromes. Finally, multimeric analyses were performed by staining the cells with Live/dead near IR dye (Invitrogen, Karlsruhe, Germany), CD8-FITC antibody clone SK1 (BD, Heidelberg, Germany) and fluorescent pMHC multimers. For analysis, a BD LSRII SORP cytometer equipped with appropriate lasers and filters was used. Peptide specific cells were calculated as percentage of total CD8+ cells. Evaluation of multimeric analysis was done using the FlowJo software (Tree Star, Oreg., USA). In vitro priming of specific multimer+ CD8+ lymphocytes was detected by comparing to negative control stimulations.
Exemplary flow cytometry results after TUMAP-specific multimer staining for two peptides of the invention are shown in FIG. 3 together with corresponding negative controls.

[2] = biological target: HLA-A*02:01 (Homo sapiens, UniProt P04439, D140Y/D185E/D98H/E176V/E277Q/G131W/G231S/I119V/I121R/I166T/I218V/L300P/L318F/N151K/N90K/P208A/P217A/Q86G/Q94H/R138H/R169H/T345S); assay: MHC binding assay: UV-ligand exchange with beta2m ELISA (exchange yield); details: binding to HLA-A*02:01, β2m ELISA
Summary of the method: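 Peptide–HLA-A*02:01 complexes formed by UV-induced exchange of a photocleavable ligand for the test peptide. Exchange products diluted 100-fold and captured on streptavidin-coated plates. Stabilized complexes detected with HRP anti-β2m (1 h, 37° C.) and TMB, A450; exchange yield reported.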

Substance | donors (positive donors, in vitro immunogenicity) [1] | wells (positive wells, in vitro immunogenicity) [1] | Wells positive [%] [1] | Peptide exchange (MHC class I binding score, peptide exchange yield) [2]
659 (ILFPDIIARA; listed as Homo sapiens) [compound 659] | +++ (50%-69% = +++) | + (<20% = +) |  | 
143 (LLLDITPEI; listed as Homo sapiens) [compound 143] |  |  | “+” (<20% = +) | “++++” (≥75% = ++++)
384 (ILFANPNIFV; listed as Homo sapiens) [compound 384] |  |  | “+” (<20% = +) | “+++” (≥50 = +++)
460 (AMLEKNYKL; listed as Homo sapiens) [compound 460] |  |  | “+” (<20% = +) | “++++” (≥75% = ++++)
199 (ALQDVPLSSV; listed as Homo sapiens) [compound 199] |  |  | “+” (<20% = +) | “+++” (≥50 = +++)
652 (TLWYRAPEV; listed as Homo sapiens) [compound 652] | ++++ (>=70% = ++++) | +++ (50%-69% = +++) |  | 
56 (KLYEGIPVLL; listed as Homo sapiens) [compound 56] |  |  | “+” (<20% = +) | “++++” (≥75% = ++++)
603 (FLIEPEHVNTV; listed as Homo sapiens) [compound 603] |  |  | “+” (<20% = +) | “++” (≥20% = ++)
141 (YLDFSNNRL; listed as Homo sapiens) [compound 141] |  |  | “+” (<20% = +) | “++” (≥20% = ++)
36 (YVLEDLEVTV; listed as Homo sapiens) [compound 36] |  |  | “+” (<20% = +) | “++” (≥20% = ++)
319 (SLEPQIQPV; listed as Homo sapiens) [compound 319] |  |  | “+” (<20% = +) | “++” (≥20% = ++)
166 (YLNHLEPPV; listed as Homo sapiens) [compound 166] |  |  | “++++” (>=70% = ++++) | “+++” (≥50 = +++)
443 (GLWEIENNPTV; listed as Homo sapiens) [compound 443] |  |  | “+” (<20% = +) | “+++” (≥50 = +++)
511 (FLDPYCSASV; listed as Homo sapiens) [compound 511] |  |  | “+” (<20% = +) | “++” (≥20% = ++)
247 (VLLPNDLLEKV; listed as Homo sapiens) [compound 247] |  |  | “+” (<20% = +) | “+++” (≥50 = +++)
3 (SLASKLTTL; listed as Homo sapiens) [compound 3] |  |  | “+” (<20% = +) | “++++” (≥75% = ++++)
662 (KIQEILTQV; listed as Homo sapiens) [compound 662] | +++ (50%-69% = +++) | + (<20% = +) |  | 
8 (FTLGNVVGMYL; listed as Homo sapiens) [compound 8] |  |  | “+” (<20% = +) | “++++” (≥75% = ++++)
79 (SLFIGEKAVLL; listed as Homo sapiens) [compound 79] |  |  | “+” (<20% = +) | “+++” (≥50 = +++)
648 (LLWGNAIFL; listed as Homo sapiens) [compound 648] | +++ (50%-69% = +++) | ++ (20%-49% = ++) |  | 

Substance | donors (positive donors, in vitro immunogenicity) [1] | wells (positive wells, in vitro immunogenicity) [1] | Wells positive [%] [1] | Peptide exchange (MHC class I binding score, peptide exchange yield) [2]
283 (ALYIGDGYVIHLA; listed as Homo sapiens) [compound 283] | +++ (50%-69% = +++) | + (<20% = +) |  | “+++” (≥50 = +++)
663 (KIQEMQHFL; listed as Homo sapiens) [compound 663] | +++ (50%-69% = +++) | + (<20% = +) |  | 
48 (ALAELYEDEV; listed as Homo sapiens) [compound 48] |  |  | “+” (<20% = +) | “+++” (≥50 = +++)
60 (SLTIDGIYYV; listed as Homo sapiens) [compound 60] |  |  | “++++” (>=70% = ++++) | “++++” (≥75% = ++++)
2 (SLLEADPFL; listed as Homo sapiens) [compound 2] |  |  | “+” (<20% = +) | “+++” (≥50 = +++)
113 (GLLPTPLFGV; listed as Homo sapiens) [compound 113] |  |  | “+” (<20% = +) | “+++” (≥50 = +++)
38 (FLLEDDIHVS; listed as Homo sapiens) [compound 38] |  |  | “+” (<20% = +) | “+++” (≥50 = +++)
118 (KLIDNNINV; listed as Homo sapiens) [compound 118] |  |  | “+” (<20% = +) | “+++” (≥50 = +++)
499 (KIFDIDEAEEGV; listed as Homo sapiens) [compound 499] |  |  | “+” (<20% = +) | “++” (≥20% = ++)
489 (KMWEELPEVV; listed as Homo sapiens) [compound 489] |  |  | “+” (<20% = +) | “+++” (≥50 = +++)
150 (RLWEEGEELEL; listed as Homo sapiens) [compound 150] |  |  | “+” (<20% = +) | “+++” (≥50 = +++)
11 (KIFEMLEGV; listed as Homo sapiens) [compound 11] |  |  | “+” (<20% = +) | “+++” (≥50 = +++)
84 (VTFGEKLLGV; listed as Homo sapiens) [compound 84] |  |  |  | “++” (≥20% = ++)
305 (SIANFSEFYV; listed as Homo sapiens) [compound 305] |  |  |  | “++++” (≥75% = ++++)
61 (FLQGYQLHL; listed as Homo sapiens) [compound 61] |  |  |  | “++++” (≥75% = ++++)
438 (KLLPLAGLYL; listed as Homo sapiens) [compound 438] |  |  |  | “++++” (≥75% = ++++)
310 (FLVDTPLARA; listed as Homo sapiens) [compound 310] |  |  |  | “++++” (≥75% = ++++)
349 (SLTEYLQNV; listed as Homo sapiens) [compound 349] |  |  |  | “++++” (≥75% = ++++)
282 (LLADVVPTT; listed as Homo sapiens) [compound 282] |  |  |  | “+++” (≥50 = +++)
